This is an account of results in patent US5728686A, “Alkylxanthine phosphonates and alkylxanthine phosphine oxides and their use as pharmaceuticals” (Hoechst Aktiengesellschaft, priority 1996, dated 1998).

Assay [1] deals with muscle group (gastrocnemius, plantaris and soleus) of the immobilized right rear extremity. The assay can be described thus: rat muscle function test: direct electrical stimulation of muscle group after 3 weeks' immobilization. In kind it is in vivo, male Wistar rats. To be noted: isotonic stimulation; oral, 1x per day for 3 weeks, as a rule 25 mg/kg; control approx. -25%; ≤-12% classified as active. The method in brief: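 Male Wistar rats (about 300 g) had the right hindlimb immobilized in a plastic cast for 3 weeks while dosed orally once daily, usually 25 mg/kg in carboxymethylcellulose. Under pentobarbital, the gastrocnemius/plantaris/soleus group was stimulated directly: isometric force (0.5N preload, 15 min) as area-under-curve, and isotonic work (body-weight preload, 15 min) in J; results as Δ% immobilized vs contralateral muscle.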

Another assay has as its system phosphodiesterase III. The assay can be described thus: inhibition of phosphodiesterase III activity. In kind it is biochemical. The note with it: at 100 μM. Here is the method:
5. Inhibition of phosphodiesterase III activity
The test is carried out using phosphodiesterase from Boehringer Mannheim (Mannheim, Germany), Order No. 108 243 according to the method of T. SAEKI, I. SAITO, Biochem. Pharm. 46, No. 5, […], pages 833-839.
All numerical values are indicated in % inhibition of the enzyme activity at 100 μM of the corresponding compound of the formula I.

A further assay has as its system soleus muscle. The experiment in a line: rat muscle function test: muscle weight (atrophy of immobilized extremity). To be noted: oral, 1x per day for 3 weeks, as a rule 25 mg/kg, difference ≤25% classified as an effect. Format: in vivo, male Wistar rats. The method in brief:
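Male Wistar rats (~300 g) had the right hind limb immobilized in a padded plastic cast for 3 weeks with daily oral dosing by stomach tube, as a rule 25 mg/kg in carboxymethylcellulose. Soleus weight of the immobilized limb was compared with the contralateral limb; a difference of ≤25% was classed as an effect.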

Assay [2] concerns Endotoxin (LPS) from Salmonella abortus equi. The experiment in a line: effect on endotoxin fatality (LPS-induced septic shock). In kind it is in vivo, female NMRI mice. The note with it: 25 mg/kg i.p. at the same time as LPS 60 mg/kg i.p.; 72 hours; vs placebo control. Here is the method: 2. Test for effect on endotoxin fatality
Individual injections of lipopolysaccharide (LPS), from gram-negative bacteria, lead via a series of various symptoms to septic shock, which usually turns out to be fatal. Endotoxin (LPS) from Salmonella abortus equi in a dose of 60 mg/kg i.p. leads to shock and to death with at most 72 h p.a. (the dose of 60 mg/kg corresponds to approximately 1.20 mg of LPS/animal).
The experimental animals used are female NMRI mice from the Hoechst AG/Hattersheim animal breeding unit having a body weight of 22 to 24 g.
The test substances administered intraperitoneally (i.p.) in an administration volume of 10 ml/kg at the same time as the LPS. The number of surviving animals after 72 hours' LPS administration is indicated in comparison to a placebo control. The number of tested animals per group is 5; dose 25 mg/kg.

Assay [3] relates to isolated guinea pig trachea, agonist substance P. The assay can be described thus: antagonist of substance P-induced contraction of isolated guinea pig trachea. In kind it is cell-based. The note with it: Cavia porcellus, individual doses, 37° C., read-out: Anticontractile action (trachea), SP antagonism: concentration range for dilatation corresponding to ED50 range.

Converted amounts (≈) assume the structure as drawn.

For the molecule `CCOP(=O)(CCCn1cnc2c1c(=O)[nH]c(=O)n2C)OCC` [Example 2, Diethyl [4-(3-methylxanthin-7-yl)propyl]phosphonate], the “Work (performed work, right/left difference)” value in assay [1] is reported as “+5 Δ %”. The “PDE III Inhibition” value in the assay on phosphodiesterase III stood at 65%. Further, the “Muscle weight (right/left difference)” value in the assay on soleus muscle is given as -22 Δ %. In addition, the Inhibition of mortality in assay [2] is on record as 100%. The EC50 in assay [3] fell in the range of 10 to 30 µg/mL (≈ 29 to 87.1 µM).
